From paper PMC12276035, “Novel Para‐Phenylenediamine‐Based Derivatives as Receptor Tyrosine Kinase‐like Orphan Receptor 1 (ROR1) Inhibitors: An In Vitro Preliminary Characterization” (Chemmedchem, 2025)

Experiments:
ROR1 kinase domain = biological target: T1, ROR1 kinase domain (Homo sapiens, UniProt Q01973); experiment: SPR assay on ROR1 kinase domain; type: binding; details: SPR, KD ± SD, 0 to 100 μM, 25 °C; n.b. = no binding; read-out: Kinase domain KD
T1 construct: recombinant human ROR1 protein (aa 453‐783, His&GST Tag); His; GST; purchased Elabscience
T1 sequence (Q01973 453-783): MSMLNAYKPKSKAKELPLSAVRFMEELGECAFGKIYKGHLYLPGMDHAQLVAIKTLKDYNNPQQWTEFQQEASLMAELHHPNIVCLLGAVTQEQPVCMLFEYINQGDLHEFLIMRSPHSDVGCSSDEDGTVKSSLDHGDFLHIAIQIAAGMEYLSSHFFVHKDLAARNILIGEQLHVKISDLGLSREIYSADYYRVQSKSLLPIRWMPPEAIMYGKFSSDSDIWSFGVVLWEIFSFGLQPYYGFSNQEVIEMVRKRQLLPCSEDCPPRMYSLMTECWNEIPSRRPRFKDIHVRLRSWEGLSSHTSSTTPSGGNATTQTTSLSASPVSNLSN
Description: We performed molecular docking experiments to explore the binding mode of novel derivatives using the crystallographic structure of the protein co‐complexed with ponatinib, a known inhibitor of ROR1 (PDB code: 6TU9).^[ [30] ^] […] To evaluate the affinity of the synthesized molecules (10, 13, 14, 17–21, 26–29) for the protein counterpart, SPR assay was performed against kinase domain ROR1. Protein immobilization was achieved using the amide coupling method, and the molecules were tested at 10 different concentrations, ranging from 0 to 100 μM. Ponatinib was used as a positive control^[ [30] ^] (Table 1 ).
SPR spectroscopy analyses were conducted to evaluate the binding affinity of the synthesized compounds against ROR1 receptor using a Biacore T200 optical biosensor equipped with research‐grade CM5 sensor chips (Cytiva, Marlborough, USA). ROR1 kinase domain was immobilized on the CM5 sensor chip surface following standard amine‐coupling protocols. Specifically, kinasic domain was immobilized at pH 4.5 10 mM CH3COONa using a flow rate of 10 μL min^−1, achieving a density of around 20 kRU.
For the experiments, surfaces of ROR1, along with an unmodified reference surface, were prepared for simultaneous analyses. […] The compounds were injected in a series of concentrations (1:2 dilution, 10 different concentrations), spanning from 0 to 100 μM. The concentration series were prepared in 96‐well plates. SPR experiments were conducted at 25 °C, with a flow rate of 20 μL min^−1, allowing for 90 s of association monitoring and 400 s of dissociation monitoring. Changes in mass, reflective of the binding response, were recorded as resonance units (RU). K D values were determined using the Biaevaluation software performing a global fit of the double‐referenced association and dissociation data to a 1:1 interaction model^[ [43] ^] (see Figure S38, Supporting Information).

SH‐SY5Y cells = experiment: MTT cell viability assay, SH‐SY5Y; type: cell-based; details: Homo sapiens, cytotoxicity, treated for 72 h, read-out: EC50 ± SD SH‐SY5Y
Description: Cytotoxicity studies, assessing the activity of the synthetized compounds, were performed only on the molecules showing the best binding profile in the SPR assay. MTT test was performed on two cell lines known for overexpressing ROR1, particularly MTT assays were conducted on JeKo‐1 (human mantle cell lymphoma) and SH‐SY5Y (neuroblastoma), exposing them to different concentrations of compounds for 72 h (Table 2 ). […] This increased effectiveness is likely due to the high expression of the target protein in leukemia and other hematologic malignancies. […] A key structural difference in 18 and 19 compared to active compounds is the absence of the trifluoromethyl group on the aromatic ring. Indeed, the removal of the trifluoromethyl group (18) or the incorporation of an electron‐donating substituent (19) alters the interaction with the ATP‐binding pocket.
The neuroblastoma SH‐SY5Y cells, a human neuroblastoma cell line of neural crest origin, were obtained from ATCC and were grown in DMEM supplemented with 10% v/v fetal bovine serum, 2 mM L‐glutamine, 100 U mL^−1 penicillin, and 0.1 mg mL^−1 streptomycin.
Cell viability was established by measuring mitochondrial metabolic activity with MTT. In brief, SH‐SY5Y (20 × 10^3 cells/well) and JeKo‐1 (10 × 10^3 cells/well) were plated into 96‐well plates for 24 h, then the compounds (1.56–50 μM) were added. […], cells were replaced with a fresh medium containing 0.5 mg mL^−1 MTT.^[ [45] ^] Cells were incubated for 1–3 h at 37 °C, then the medium was discarded, and formazan blue crystals in the cells dissolved with 100 μL per well of a solution containing isopropanol/HCl 0.1 M. The absorbance was measured at 570 nm using a microplate reader (Multiskan Go, Thermo Scientific, Waltham, MA, USA). Cell viability was expressed as a percentage relative to the untreated cells cultured in medium with 0.1% DMSO and set to 100%, whereas 10% DMSO was used as positive control and set to 0% of viability. The EC50 values were calculated using GraphPad Prism 8.0 software by nonlinear regression of dose‐response inhibition.

Plasma stability assay = type: in vitro ADME; details: mouse plasma, 120 min, 37 °C
Description: In addition to hepatic metabolism, drugs are also prone to degradation and modification by plasma enzymes, including hydrolases and esterases. Compounds with low plasma stability often show rapid clearance and a short half‐life. […] In this study, we assessed the metabolic stability of compound 17 by incubating it in mouse plasma for 120 min.
The plasma stability of compound 17 was evaluated. Briefly, mouse plasma is equilibrated to 37 °C and biotransformation is initiated by addition of compound solution and mixing. At each specified time point (0, 60, and 120 min), the test compound was extracted using ice‐cold methanol to halt degradation, with the IS added during the quenching phase. The concentration of the test compound was then quantified using LC‐MS. The percentage of the test compound remaining at each time point, relative to the 0 min reference, was recorded. Procaine (low stability) and procainamide (high stability) served as controls. All experiments were conducted in triplicate.

O=C(NCc1ccc(-c2ccccc2)cc1)Nc1ccc(NCC2CCNCC2)cc1C(F)(F)F [Compound 17]
Kd (ROR1 kinase domain): 12.1 ± 2.68 µM | EC50 (SH‐SY5Y cells): 17.7 ± 2.73 µM | compound remaining intact (Plasma stability assay): over 85%
